Source: US10799456B2, “Multiple drug lipid nanoparticle composition and related methods for extended drug levels in blood and lymph tissue” (priority 2015, dated 2020)

Columns and labels:
[1] = Drug incorporation/encapsulation (association) efficiency of multi-drug LNPs by dialysis; assay type: physicochemical; conditions: for Degree of incorporation (% total): anti-HIV LNPs LPV/RTV/PMPA
Protocol: The anti-HIV LNP formulations contain both unbound drug and drugs bound to lipid nanoparticles. […] Drugs were quantified by LC-MS/MS using acetonitrile precipitation. Encapsulation efficiency (EE) was calculated as follows: […]

[2] = Storage stability at 4° C. (fraction of drug bound, dialysis); assay type: physicochemical
Protocol: To test the long-term stability, the multi-drug nanoparticles were stored under refrigeration at 4° C. and were tested for stability after a prolonged period. The lipid-drug combination particles are stable as determined by both particle size and degree of drug association (Table 12). […] Even the hydrophilic compound, which readily diffuses out of most lipid particles in a number of hours, loses a remarkably low fraction of the associated drug after 8, 12, and 17 months in storage. This exceptional stability provides a substantial advantage for translation to clinical application.

[3] = % Drug association to particles by assembly method; assay type: physicochemical
Method in brief: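 Drugs and excipients (e.g., 9:1 DSPC:PEG-DSPE) dissolved in single-phase CHCl3:alcohol:water (65:35:4), dried under reduced pressure, heated above lipid phase transition (e.g., 50° C.). Hydrated with equilibrated buffered saline at that temperature for 3 hr, then size-reduced by shearing or pressurized filtration in liquid phase.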

[4] = Tables 18 and 19; cited from earlier work
[5] = Drug incorporation efficiency into lipid-drug nanoparticles (dialysis); assay type: physicochemical; conditions: LNPs with ATV + RTV + TFV (2:1:3); for Incorporation efficiency (%): laboratory 0.2 mL scale; for Incorporation efficiency (%) / Drug incorporation (% total): preclinical 45 mL scale
Protocol: J Acquir Immune Defic Syndr. […] Journal of pharmaceutical sciences. […] The AAPS journal. […] Residual solvent was removed overnight by vacuum desiccation. The dried lipid-drug film was then rehydrated with 0.9% NaCl containing 20 mM sodium bicarbonate (pH 7.4). The lipid-drug samples were allowed to hydrate at 60° C. for 2 h. Then samples were sonicated (laboratory scale) or homogenized (preclinical scale) to achieve a homogenous suspension.
The incorporation efficiency was calculated as the ratio of the amount of incorporated drug over the total amount of drug loaded multiplied by 100%.

[6] = Intracellular drug concentration in peripheral blood mononuclear cells (PBMCs); assay type: in vivo, Macaca nemestrina
Protocol: Four macaques were divided into two treatment groups (two animals per group). […] Data were normalized to the anti-HIV LNP dose for comparative analysis.
Plasma was removed, PBMCs were isolated by the density gradient method, and cells were aliquoted into pellets of approximately 2 million PBMCs each. An inguinal lymph node was surgically excised 24 h after drug administration (n=2 per treatment), LNMCs were isolated by passage through a 100-lm nylon cell strainer (Corning, Tewksbury, Mass.), and cells were aliquoted into pellets of approximately 1-2 million LNMCs each. All samples were stored at −80° C. prior to drug analysis.
Plasma concentrations of all three drugs were analyzed simultaneously by liquid chromatography-tandem mass spectrometry using a recently published method. […] PBMC and LNMC pellets were lysed using 200 μl water/methanol (1:1 v/v), sonicated for 10 min, and then extracted and analyzed using the same method as cited above. Intracellular concentrations were converted to ng/ml with the assumption that each cell has a volume of 4×10^−9 ml.

[7] = cited from earlier work
[8] = reported values; cited from earlier work
[9] = literature, cited from earlier work
[10] = Plasma drug exposure of three multi-drug lipid formulations vs free drug in primates; conditions: for Lipid/Free Ratio: total AUC
[11] = Combination 1, lipid:LPV:RTV:TFV 115:10:5:15, large scale
[12] = Combination 2, lipid:ATZ:RTV:TFV 115:10:5:15, large scale

CC(C)c1nc(CN(C)C(=O)N[C@H](C(=O)N[C@@H](Cc2ccccc2)C[C@H](O)[C@H](Cc2ccccc2)NC(=O)OCc2cncs2)C(C)C)cs1 [Ritonavir (RTV), Ritonavir]
% particle-bound [1, 11]: (83.4 ± 1.4) % | % particle-bound [1, 12]: (88.5 ± 3.1) % | Degree of incorporation (% total) ([1]; clinical scale (15-40 ml)): 90.7 ± 7.4% | Degree of incorporation (% total) ([1]; laboratory scale (0.1-0.4 ml)): 74.2 ± 8.4% | Fraction of drug bound in multi-drug nanoparticles (% total) ([2]; 0 months): 88.30 ± 7.38% | Fraction of drug bound in multi-drug nanoparticles (% total) ([2]; 8 months): 93.01 ± 7.70% | Fraction of drug bound in multi-drug nanoparticles (% total) ([2]; 12 months): 94.91 ± 13.66% | Fraction of drug bound in multi-drug nanoparticles (% total) ([2]; 17 months, one batch): 90.50% | % Drug Association to Particles, LNPs from mixture of dual solvent method [3]: 80-100% | % Drug Association to Particles, LNPs from single, miscible solvent method [3]: 90-100% | LogP [4]: 6

C[C@H](Cn1cnc2c(N)ncnc21)OCP(=O)(O)O [Tenofovir (TFV), [(2R)-1-(6-aminopurin-9-yl)propan-2-yl]oxymethylphosphonic acid]
Incorporation efficiency (%) [5]: 2.4 ± 0.1% | Incorporation efficiency (%) ([5]; listed as TFV): about 2.4% | Incorporation efficiency (%) / Drug incorporation (% total) [5]: 6.1 ± 0.8% | Incorporation efficiency (%) / Drug incorporation (% total) ([5]; listed as tenofovir): 6.1±0.8% | % particle-bound [1, 11]: (9.9 ± 2.9) % | % particle-bound [1, 12]: (7.9 ± 1.8) % | % particle-bound ([1]; Combination 3, lipid:LPV:EFV:TFV 200:26.6:20:40, large scale): (7.9) % | stable lipid association ([1]; across drug combinations): 8-10% | Degree of incorporation (% total) ([1]; clinical scale (15-40 ml), listed as PMPA): 12% | Degree of incorporation (% total) ([1]; clinical scale (15-40 ml), listed as Tenofovir): 11.9 ± 3.0% | Degree of incorporation (% total) ([1]; laboratory scale (0.1-0.4 ml)): 11.8 ± 5.1% | LNP/free ratio, mononuclear cells in blood ([6]; 0 h): 1.0 | Lipid/Free Ratio, PBMCs ([6]; 0 h): 1 | LNP/free ratio, mononuclear cells in blood ([6]; 0.5 h): 0.3 | Lipid/Free Ratio, PBMCs ([6]; 0.5 h): 0.3 | LNP/free ratio, mononuclear cells in blood ([6]; 1 h): 0.4 | Lipid/Free Ratio, PBMCs ([6]; 1 h): 0.4 | LNP/free ratio, mononuclear cells in blood ([6]; 3 h): 0.5 | LNP/free ratio, mononuclear cells in blood ([6]; 5 h): 4.6 | Lipid/Free Ratio, PBMCs ([6]; 5 h): 4.6 | LNP/free ratio, mononuclear cells in blood ([6]; 8 h): 59.0 | LNP/free ratio, mononuclear cells in blood ([6]; 8 h, listed as PMPA): over 50 | LNP/free ratio, mononuclear cells in blood ([6]; 8 h, listed as TFV): over 50 | LNP/free ratio, mononuclear cells in blood ([6]; 24 h): 70.0 | Lipid/Free Ratio, PBMCs ([6]; 24 h): 70 | LNP/free ratio, mononuclear cells in blood ([6]; 48 h): >227.0 | LNP/free ratio, mononuclear cells in blood ([6]; 168 h): >25.0 | Lipid/Free Ratio, PBMCs ([6]; 168 h): >25.0 | Fraction of drug bound in multi-drug nanoparticles (% total) ([2]; 0 months): 9.32 ± 3.79% | Fraction of drug bound in multi-drug nanoparticles (% total) ([2]; 8 months): 7.72 ± 2.95% | Fraction of drug bound in multi-drug nanoparticles (% total) ([2]; 12 months): 8.79 ± 0.92% | Fraction of drug bound in multi-drug nanoparticles (% total) ([2]; 17 months, one batch): 7.30% | % Drug Association to Particles, LNPs from mixture of dual solvent method [3]: 7-30% | % Drug Association to Particles, LNPs from single, miscible solvent method [3]: 78-85% | % association of hydrophilic drug in typical liposome ([3]; typical liposomes): 3-5% | Water solubility @ 25° C. [7]: 13.3 mg/mL | % Drug Association to Particles, Liposomes [8]: ~5% | final % drug association ([9]; double emulsion nano-precipitate method): less than 3% | association of hydrophilic drug ([9]; phosphatidylcholine with stearylamine, particles up to ˜2000 nm): 70% | Lipid/Free Ratio ([10]; ATZ/RTV/TFV combination): 25.2 | Lipid/Free Ratio ([10]; LPV/RTV/TFV combination): 13.1 | fold increase in plasma exposure, lipid-stabilized vs free drug ([10]; across drug combinations): 10- to 20 fold
